EP1908478B1, “Pharmaceutical preparation and method of treatment of human malignancies with arginine deprivation” (Bio-Cancer Treatment International Limited, priority 2002, dated 2003)

Assays:
[1] = molecular target: T1, recombinant human Arginase I, native (non-pegylated), 6xHis-tagged, B. subtilis-expressed, SEQ ID NO: 3 (Homo sapiens, UniProt P05089); assay: Arginase activity, kinetic properties (method of Ikemoto et al. 1990); type: biochemical; conditions: substrate arginine
T1 sequence (P05089 1-322): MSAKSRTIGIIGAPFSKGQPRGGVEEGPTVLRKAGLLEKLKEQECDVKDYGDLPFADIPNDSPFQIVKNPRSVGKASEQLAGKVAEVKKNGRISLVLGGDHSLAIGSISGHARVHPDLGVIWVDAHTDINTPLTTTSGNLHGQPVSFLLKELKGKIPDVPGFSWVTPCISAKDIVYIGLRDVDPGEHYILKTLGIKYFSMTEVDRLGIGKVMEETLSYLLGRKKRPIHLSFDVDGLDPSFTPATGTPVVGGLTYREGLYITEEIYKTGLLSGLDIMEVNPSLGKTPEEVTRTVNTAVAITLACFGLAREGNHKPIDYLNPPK

human liver Arginase = human liver Arginase (Homo sapiens, UniProt P05089); conditions: published value in literature; substrate arginine; cited from earlier work
[2] = molecular target: T2, pegylated Arginase (recombinant human Arginase I, SEQ ID NO: 3, modified with mPEG-SPA, MW 5,000) (Homo sapiens, UniProt P05089); assay: Arginase activity, kinetic properties (method of Ikemoto et al. 1990); type: biochemical; conditions: substrate arginine
T2 sequence (P05089 1-322): T1 sequence (P05089 1-322)
Description: Moreover, about 1 mM of Mn^2+ ions and a temperature of 30-50 degree C are required to achieve maximum activity for the native Arginase.

N=C(N)NCCC[C@H](N)C(=O)O [arginine]
Km [1]: 1900 ± 700 µM | Vmax [1]: 518 µmol urea min^-1. mM^-1 | kcat [1]: 2.0 ± 0.5 s⁻¹ | Km (human liver Arginase): 2600 µM | Km [2]: 2900 ± 300 µM | Vmax [2]: 360 µmol urea min^-1 mM^-1
